What all share (assay): DTP human tumour cell line panel, 48 h
Assay [1] relates to SR leukemia.
Assay [2] deals with UACC-257 melanoma.
The test system of assay [3] is 786-0 renal.
In assay [4] the test system is RXF 393 renal.
Assay [5] concerns BT-549 breast.
In assay [6] the test system is M14 melanoma.
Assay [7] relates to KM12 colon.
In assay [8] the test system is A498 renal.
The test system of assay [9] is U251 CNS.
Assay [10] concerns OVCAR-8 ovarian.
In assay [11] the test system is UACC-62 melanoma.

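1) Cells in 96-well plates. 2) Compound, 48 h, 5 concentrations. 3) Linear interpolation between surrounding doses. 4) Unreached endpoint = highest concentration. TGI marks complete inhibition of growth.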

For `NCCCCNCCCN`, the TGI in [1], in assay [2], in [3], in assay [4], in [5] and in assay [6] was more than 100 µM each time. For the same compound, the TGI in assay [7], in assay [8], in [9], in assay [10] and in assay [11] was more than 100 µM in each case.
Turning to `O=C(Nc1ccc2ccccc2c1)Nn1cnnc1`, the TGI in [1], in [2], in assay [3], in [5], in [6] and in assay [7] was more than 100 µM each time. The TGI in assay [8], in [9], in assay [10] and in [11] was more than 100 µM each time.
Take `Cc1nc2ccccc2c(=O)n1NC(=O)Cc1ccccc1`: the total growth inhibition concentration (TGI) in assay [1], in assay [2], in [3], in assay [4], in [5] and in [6] was more than 100 µM each time. The TGI in [7], in assay [8], in assay [9], in [10] and in assay [11] was more than 100 µM throughout.
In the case of `CC1(C)Oc2ccc(Cl)cc2C12CC2`, the TGI (in general, the concentration giving total growth inhibition) came to 36.4 µM in [1]; 30.1 µM in [2]; 31.3 µM in assay [3]; 30.2 µM in [4]; 68.5 µM in assay [5]; 35.5 µM in [6]. In addition, the TGI in [7] was 53.1 µM; in [8], 29.9 µM; in assay [9], 29.4 µM; in assay [10] it was 28.4 µM; in assay [11], more than 100 µM.
On to `CC(=O)NC1C(OCc2ccccc2)OC(CO)C(O)C1OCC(=O)NC(C)C(=O)NC(CCC(=O)NCCCCCC(=O)Nc1ccc2c(c1)CN1C(=O)c3ccccc3C1=N2)C(N)=O` (stereo not given), for which the TGI is 42.5 µM in assay [1]; more than 100 µM in assay [2]; more than 100 µM in assay [3]; more than 100 µM in assay [4]; more than 100 µM in assay [5]; more than 100 µM in [6]. Also, the TGI in [7], in assay [8], in assay [9], in assay [10] and in assay [11] was more than 100 µM each time.
As for `CC(C)OC(=O)c1ccc(CCC2=CC(=O)C(Br)=CC2=O)cc1`, the concentration for total growth inhibition (TGI) in assay [1] was more than 100 µM; in assay [2] it was 26.9 µM; in assay [3] it was 30.2 µM; in assay [4], 31.2 µM; in [5] it was 16.8 µM; in assay [6], 31.2 µM. Besides, the TGI in assay [7] is 26.5 µM; in assay [8] it was more than 85 µM; in assay [9], 29.8 µM; in [10] it was 32.8 µM; in assay [11], 31.3 µM.
Consider `CN(N)C(=O)NCCCl`, for which the TGI in [1], in assay [2], in assay [3], in [4], in assay [5] and in assay [6] was more than 100 µM in each case. Moreover, the TGI in assay [7], in assay [8], in assay [9] and in [11] was more than 100 µM each time.
Turning to `Cc1ccc(S(=O)(=Nc2ccccc2)C(C(C)C)C(C)(C)Cl)cc1` (stereo not given), the concentration for total growth inhibition (TGI) in assay [1] is 49.7 µM; in assay [2], more than 50 µM; in assay [3], more than 50 µM; in assay [4] it was more than 50 µM; in assay [5], more than 50 µM; in [6] it was more than 50 µM. Further, the TGI in [7], in assay [8], in assay [9], in assay [10] and in assay [11] was more than 50 µM in each case.
Take `C=C1c2nc3ccccc3n2C=C(c2ccc(Cl)cc2)N1c1ccccc1`: the TGI is more than 100 µM in [1]; 63 µM in assay [2]; 26 µM in [3]; 49.5 µM in [4]; 18.8 µM in [5]; 36.4 µM in assay [6]. For the same compound, the TGI in assay [7] is 24.7 µM; in assay [8], more than 100 µM; in assay [9], 44.8 µM; in assay [10] it was 23.7 µM; in assay [11], 66.2 µM.
Consider `CC[C@@]1(O)C(=O)OCc2c1cc1n(c2=O)Cc2c-1nc1ccccc1c2/C=N\NC(=O)C(N)CS` (stereo not given in full), for which the TGI is 1.04 µM in [1]; more than 100 µM in [2]; more than 100 µM in assay [3]; 10.2 µM in [4]; more than 100 µM in assay [5]; 10.5 µM in assay [6]. The concentration for total growth inhibition (TGI) is more than 100 µM in [7]; 23 µM in assay [8]; more than 34.5 µM in assay [9]; more than 100 µM in [10]; 0.761 µM in [11].
Turning to `O=C1c2ccccc2C2(c3ccc(Cl)cc3)NCc3ccccc3CN12` (stereo not given), the TGI in assay [1] is more than 100 µM; in [2], more than 100 µM; in [3], 26.4 µM; in [4], 29.6 µM; in [5], more than 100 µM; in assay [6], 34 µM. Also, the TGI in assay [7] was 44.2 µM; in [8] it was 42.8 µM; in [9] it was more than 100 µM; in [10], 60.8 µM; in [11], 33.5 µM.
For the compound `C=C1C(=O)[C@]23[C@H](O)[C@H]1CC[C@H]2[C@@]12CO[C@@]3(O)C[C@@H]1C(C)(C)CC[C@@H]2O`, the total growth inhibition concentration (TGI) is more than 25 µM in [1]; 21.1 µM in [2]; more than 25 µM in [3]; 11.5 µM in assay [4]; 8.33 µM in [5]; 18.4 µM in assay [7]. Moreover, the TGI in assay [8] was 20.1 µM; in assay [10], more than 25 µM.
`COC(=O)C[C@H](COCc1ccccc1)NC(=O)C[C@H](COCc1ccccc1)NC(=O)C[C@H](COCc1ccccc1)NC(=O)OC(C)(C)C`: the TGI in assay [1] was more than 100 µM; in assay [3] it was 72.9 µM; in [4] it was 72 µM; in assay [5] it was more than 100 µM; in [6], more than 100 µM; in [7] it was more than 100 µM. Also, the TGI is 67.1 µM in assay [8], more than 100 µM in [9], more than 100 µM in assay [10] and more than 100 µM in assay [11].
With `COc1ccc(N2C(=O)C3c4[nH]c5ccccc5c4C4CCC(C(C)C)CC4C3C2=O)cc1` (stereo not given), the TGI in assay [1], in assay [2], in assay [3], in assay [5], in assay [6] and in [7] was more than 100 µM throughout. For the same compound, the TGI in assay [8], in [9], in [10] and in [11] was more than 100 µM each time.
On to `CCCCCCC(CCl)c1sc(-c2csc(CCNC(=O)OC(C)(C)C)n2)nc1C(=O)OC` (stereo not given), for which the TGI in assay [1] is more than 100 µM; in [2], 67.6 µM; in assay [3], 75.9 µM; in assay [5], 58.3 µM; in assay [7] it was 80.5 µM; in [8] it was more than 100 µM. The total growth inhibition concentration (TGI) is 38 µM in [9], more than 100 µM in assay [10] and 38.9 µM in [11].
Consider `O=C(NCCO)c1c(O)c2ccccc2[nH]c1=O`, for which the TGI in assay [1], in assay [2], in assay [3], in [4], in assay [5] and in assay [7] was more than 100 µM each time. Besides, the TGI in assay [8], in assay [9] and in assay [10] was more than 100 µM throughout.
For the compound `CC(NC(=O)C(C)C(=O)NCc1ccc(C(F)(F)F)cc1)C(N)=O` (stereo not given), the TGI in assay [1], in assay [2], in [3], in assay [4], in [5] and in assay [6] was more than 100 µM throughout. Also, the TGI in assay [7], in assay [9], in [10] and in assay [11] was more than 100 µM each time.
As to `CC(C)(C)OC(=O)NC(CCCCNC(=O)OCc1ccccc1)C(=O)NC(CCCCNC(=O)OCc1ccccc1)C(=O)ON1C(=O)CCC1=O` (stereo not given), the TGI in assay [1], in assay [2], in [3], in [4], in assay [5] and in assay [6] was more than 100 µM in each case. The TGI in assay [7], in assay [9], in assay [10] and in [11] was more than 100 µM each time.
As for `Cc1ccc(O)c(Cc2nc3ccccc3nc2-c2cccc(Br)c2)c1`, the TGI in assay [1], in assay [2], in assay [3], in assay [4], in assay [5] and in assay [6] was more than 100 µM throughout. For the same compound, the TGI in [7], in assay [9], in assay [10] and in assay [11] was more than 100 µM in each case.
